Data from PubChem BioAssay AID1963832 (Molecular Pharmacology Branch, DTP, NCI, 2024).
pIC50: −log10 of the molar value.

Tested on: 885724-159-R-J1-PDC complex spheroid viability
Experiment: Anticancer human tumor 885724-159-R-J1-PDC patient-derived pancreatic adenocarcinoma cell line growth inhibition [POLQ]
Settings: for pIC50: curve of first compound; for viability, T/C: stronger effect = lower value; active = viability on the fitted dose curve at most 10% of control; inactive = the rest
Protocol: Multicellular complex tumor spheroid response to Polymerase (POL) inhibitors (novobiocin, ART-558, RP6685) in combination with a variety of drugs and investigational agents in selected tumor cell lines
The POL inhibitors (novobiocin, ART-558, and RP6685) were evaluated both individually and in combination with standard of care and investigational anticancer small molecules within a complex spheroid model of solid tumors. . Complex spheroids include a stromal component modeled by human endothelial cells (HUVEC) and fibroblasts modeled by human mesenchymal stem cells (MSCs). The concentration ranges selected for each drug and investigational agent were based upon clinically achievable concentrations if the clinical Cmax of the agent was known.
Compounds. The drugs and investigational agents: novobiocin (NSC847541), ART-558 (NSC835418), RP-6685 (NSC848927), peposertib (NSC802822), ceralasertib (NSC780249), elimusertib (NSC800525), camonsertib (NSC841442), AZD-1390 (NSC803789), olaparib (NSC753686), talazoparib (NSC767125), rucaparib (NSC756644), sotorasib (NSC818433), MRTX-1133 (NSC836407), SN-38 (NSC673596), topotecan (NSC609699), epotoside (NSC141540), doxorubicin (NSC123127), gemcitabine (NSC613327), 5-fluorouracil (NSC19893), paclitaxel (NSC125973), vemurafenib (NSC761431), MSA-2 (NSC828583), SN-011 (NSC837082), adavosertib (NSC754352), prexasertib (NSC758257), carboplatin (NSC241240) and oxaliplatin (NSC266046), were obtained from the National Cancer Institute (NCI) Developmental Therapeutics Program Chemical Repository (21). The FDA-approved anticancer drug set is available from the Developmental Therapeutics Program at https://dtp.cancer.gov/organization/dscb/obtaining/. […] The stock solutions were prepared in dimethyl sulfoxide (DMSO, Sigma-Aldrich, St. Louis, MO, cat. D2650), except for the platinum compounds which were prepared in saline (Quality Biological, Gaithersburg, MD, cat. 114-055-101), at 800-fold the tested concentration and stored at -70 degrees C prior to their use. All drugs and investigational agents were tested over a range starting from a high concentration at or near the clinical Cmax and decreasing in half-log increments. If the clinical Cmax for an agent had not been determined, the highest concentration tested was 10 microM, except for SN-38, which was tested at a high concentration of 1 microM.
Cell Culture. All cells were maintained in an incubator at 37 degrees C and 5% CO2 with 95% humidity. The PDC lines were cultured according to standard operating procedures established by the NCI PDMR (https://pdmr.cancer.gov). Table 3 of the manuscript, lists the cell lines along with the number of the three cell types plated to form the mct-spheroids and media for tumor cell growth. After thawing, all PDC lines, except 997537-175-T-J1-PDC and 415267-285-R-J2-PDC, were cultured in Matrigel-coated flasks prepared with a working solution of 1X Ham's F-12 nutrient mix, without supplementation (Thermo Fisher Scientific, cat. 11765054), 100 U/mL penicillin-streptomycin (Thermo Fisher Scientific, cat. 15140122), and 2.5% Matrigel (Corning Inc., Corning, NY, cat. 354248) for the first three passages. The two PDC lines 997537-175-T-J1-PDC and 415267-285-R-J2-PDC were cultured on uncoated flasks. The 857933-349-R-J2-PDC line was cultured in 6C/Colon 1B media containing advanced DMEM/F-12 (Thermo Fisher Scientific, cat. 12634028), 10 mM HEPES (Thermo Fisher Scientific, cat. 15630080), 1X GlutaMAX supplement (Thermo Fisher Scientific, cat. 35050061), 0.1 mg/mL primocin (InvivoGen, San Diego, CA, cat. ant-pm-2), 10% defined fetal bovine serum, heat inactivated (HyClone Laboratories Inc., Logan, UT, cat. SH30070.03HI), 50% L-WRN conditioned media (ATCC, cat. CRL-3276), 1.25 mM N-Acetyl-L-cysteine (Sigma-Aldrich, cat. A9165), 10 mM nicotinamide (Sigma-Aldrich, cat. N0636), 1X B-27 supplement (Thermo Fisher Scientific, cat. 17504044), 1X N-2 supplement (Thermo Fisher Scientific, cat. […]

[1] = second compound 0.0316 µM, first compound 0.0316 µM
[2] = second compound 0.0316 µM, first compound 0.1 µM
[3] = second compound 0.0316 µM, first compound 0.316 µM
[4] = second compound 0.0316 µM, first compound 1 µM
[5] = second compound 0.0316 µM, first compound 3.16 µM
[6] = second compound 0.0316 µM, first compound 10 µM
[7] = second compound 0.1 µM, first compound 0.0316 µM
[8] = second compound 0.1 µM, first compound 0.1 µM
[9] = second compound 0.1 µM, first compound 0.316 µM
[10] = second compound 0.1 µM, first compound 1 µM
[11] = second compound 0.1 µM, first compound 3.16 µM
[12] = second compound 0.1 µM, first compound 10 µM
[13] = second compound 0.316 µM, first compound 0.0316 µM
[14] = second compound 0.316 µM, first compound 0.1 µM
[15] = second compound 0.316 µM, first compound 0.316 µM
[16] = second compound 0.316 µM, first compound 1 µM
[17] = second compound 0.316 µM, first compound 3.16 µM
[18] = second compound 0.316 µM, first compound 10 µM
[19] = second compound 1 µM, first compound 0.0316 µM
[20] = second compound 1 µM, first compound 0.1 µM
[21] = second compound 1 µM, first compound 0.316 µM
[22] = second compound 1 µM, first compound 1 µM
[23] = second compound 1 µM, first compound 3.16 µM
[24] = second compound 1 µM, first compound 10 µM
[25] = second compound 3.16 µM, first compound 0.0316 µM
[26] = second compound 3.16 µM, first compound 0.1 µM
[27] = second compound 3.16 µM, first compound 0.316 µM
[28] = second compound 3.16 µM, first compound 1 µM
[29] = second compound 3.16 µM, first compound 3.16 µM
[30] = second compound 3.16 µM, first compound 10 µM
[31] = second compound 10 µM, first compound 0.0316 µM
[32] = second compound 10 µM, first compound 0.1 µM
[33] = second compound 10 µM, first compound 0.316 µM
[34] = second compound 10 µM, first compound 1 µM
[35] = second compound 10 µM, first compound 3.16 µM
[36] = second compound 10 µM, first compound 10 µM
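Also: spheroids exposed to compounds for 7 days.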

COc1cc2cc(C(=O)CCC(=O)O)sc2cc1OC + Nc1ccc(C#CCN(C(=O)Cc2ncc(C(F)(F)F)cc2C(F)(F)F)c2ccc(F)cc2)nn1
inactive: viability, T/C [1] 96.1% | viability, T/C [2] 105% | viability, T/C [3] 98.3% | viability, T/C [4] 108% | viability, T/C [5] 107% | viability, T/C [6] 100% | viability, T/C [7] 103% | viability, T/C [8] 106% | viability, T/C [9] 98.8% | viability, T/C [10] 95.7% | viability, T/C [11] 101% | viability, T/C [12] 88.8% | viability, T/C [13] 101% | viability, T/C [14] 95.3% | viability, T/C [15] 90% | viability, T/C [16] 109% | viability, T/C [17] 97.6% | viability, T/C [18] 86.3% | viability, T/C [19] 94.9% | viability, T/C [20] 95.2% | viability, T/C [21] 94.4% | viability, T/C [22] 92.4% | viability, T/C [23] 103% | viability, T/C [24] 88.9% | viability, T/C [25] 91.1% | viability, T/C [26] 94.5% | viability, T/C [27] 103% | viability, T/C [28] 94.1% | viability, T/C [29] 104% | viability, T/C [30] 86.4% | viability, T/C [31] 107% | viability, T/C [32] 97.3% | viability, T/C [33] 92.7% | viability, T/C [34] 96.8% | viability, T/C [35] 114% | viability, T/C [36] 96%
< 5.00: pIC50 (second compound 0.0316 µM) | pIC50 (second compound 0.1 µM) | pIC50 (second compound 0.316 µM) | pIC50 (second compound 1 µM) | pIC50 (second compound 3.16 µM) | pIC50 (second compound 10 µM)

O=C(c1cc(Cc2n[nH]c(=O)c3ccccc23)ccc1F)N1CCN(C(=O)C2CC2)CC1 + Nc1ccc(C#CCN(C(=O)Cc2ncc(C(F)(F)F)cc2C(F)(F)F)c2ccc(F)cc2)nn1
inactive: viability, T/C [1] 90.7% | viability, T/C [2] 97.2% | viability, T/C [3] 95.1% | viability, T/C [4] 88.2% | viability, T/C [5] 89.4% | viability, T/C [6] 80.4% | viability, T/C [7] 95% | viability, T/C [8] 94.5% | viability, T/C [9] 85.7% | viability, T/C [10] 96.7% | viability, T/C [11] 84.1% | viability, T/C [12] 77.6% | viability, T/C [13] 85.4% | viability, T/C [14] 94.5% | viability, T/C [15] 100% | viability, T/C [16] 87.8% | viability, T/C [17] 86.2% | viability, T/C [18] 75.8% | viability, T/C [19] 101% | viability, T/C [20] 90.6% | viability, T/C [21] 84.6% | viability, T/C [22] 99% | viability, T/C [23] 88.7% | viability, T/C [24] 84% | viability, T/C [25] 98% | viability, T/C [26] 92% | viability, T/C [27] 84.7% | viability, T/C [28] 82% | viability, T/C [29] 88.1% | viability, T/C [30] 80.8% | viability, T/C [31] 102% | viability, T/C [32] 94.3% | viability, T/C [33] 87.4% | viability, T/C [34] 94.1% | viability, T/C [35] 95.6% | viability, T/C [36] 75.6%
< 5.00: pIC50 (second compound 0.0316 µM) | pIC50 (second compound 0.1 µM) | pIC50 (second compound 0.316 µM) | pIC50 (second compound 1 µM) | pIC50 (second compound 3.16 µM) | pIC50 (second compound 10 µM)
